Laboratory results reported in publication PMC8624998, “Synthesis and Antiproliferative Evaluation of 3-Chloroazetidin-2-ones with Antimitotic Activity: Heterocyclic Bridged Analogues of Combretastatin A-4” (Pharmaceuticals, 2021).

Columns and labels:
K-562 = test: NCI-60 5 dose screen, leukaemia; format: cell-based; settings: Homo sapiens, K562
Bcl-2 = test: Western blot analysis; format: cell-based, human; settings: MCF-7, 0.05, 0.1 and 0.5 μM, 48 or 72 h
Excerpt: (§1) The apoptosis regulating proteins Bcl-2 and Mcl-1 were next investigated. The anti-apoptotic or pro-survival Bcl-2 protein is also a member of the Bcl-2 family. It prevents the release of a pro-apoptotic AIF (apoptosis inducing factor) and cytochrome c from the mitochondria into the cytoplasm and prevents apoptosis by sequestering caspases (apoptosis promoters). […] (Figure 9). Mcl-1 protein (an induced myeloid leukaemia cell differentiation protein) is another key anti-apoptotic member of the Bcl-2 family and is localised in the mitochondrial outer membrane. It binds and sequesters the pro-apoptotic Bax/Bak proteins and, thus, prevents the release of cytochrome c. Overexpression of the anti-apoptotic factors Mcl-1, Bcl-2 and Bcl-xL in acute myeloid leukaemia and acute lymphocytic leukaemia may be associated dysregulation of apoptosis. […] (Figure 10). Apoptosis can be triggered by a reduction in the expression levels of Mcl-1 and Bcl-2 (e.g., by drug treatment). […]
(§2) MCF-7 cells were seeded at a density of 1 × 10^5 cells/flask in T25 flasks. […] Equal quantities of protein (as determined using a BCA assay) were resolved by SDS-PAGE (12%) followed by transfer to PVDF membranes. […] Proteins were detected using enhanced chemiluminescent Western blot detection (Clarity Western ECL substrate) (Bio Rad) on the ChemiDoc MP System (Bio Rad). […]

Mcl-1 = test: Western blot analysis; format: cell-based, human; settings: MCF-7, 0.05, 0.1 and 0.5 μM, 48 or 72 h
Excerpt: as §1, §2

Row | Compound | GI50 (K-562) [µM] | level of anti-apoptotic protein Bcl-2 (Bcl-2) | level of anti-apoptotic protein Mcl-1 (Mcl-1)
1 | CCSc1ccc(C2C(Br)C(=O)N2c2cc(OC)c(OC)c(OC)c2)cc1 (stereo not drawn) [Compound 16d, 3-Bromo-4-(4-(ethylthio)phenyl)-1-(3,4,5-trimethoxyphenyl)azetidin-2-one] | 0.0545 | – | –
2 | COc1ccc(C2C(Cl)C(=O)N2c2cc(OC)c(OC)c(OC)c2)cc1O (stereo not drawn) [Compound 10n, 3-Chloro-4-(3-hydroxy-4-methoxy-phenyl)-1-(3,4,5-trimethoxyphenyl)azetidin-2-one] | – | downregulated in a dose-dependent manner | downregulated in a dose-dependent manner
